biological target: T1, HCV1b NS5B polymerase delta 21 (Hepatitis C virus genotype 1b, UniProt P26663); test: RNA-Dependent RNA HCV NS5B (Polymerase) Assay and IC50 Determination; format: biochemical
T1 construct: purified HCV1b NS5B polymerase delta 21
Method: RNA-Dependent RNA HCV NS5B (Polymerase) Assay and IC50 Determination
In vitro RNA-dependent RNA polymerase activity was determined in a reaction mixture (50 μL) containing 50 mM Tris-HCl, pH 7.5, 5 mM MgCl2, 1 mM dithiothreitol, 0.5% Triton® X-100, 10 μM of UTP, 0.1-0.5 μCi of α-^32P UTP (Perkin Elmer Life Sciences), 1 μg of polyA:U16 (Midland Oligo), and 0.6 μg of purified HCV1b NS5B polymerase delta 21. Different concentrations of compounds were added to the reaction mixtures. The reaction was carried out at RT (23° C.) for 60 min and then stopped by the addition of 100 μL of 50 mM EDTA. The reaction mixtures were filtered through either a DE81 membrane or a positively charged nylon membrane, and the membranes were then extensively washed with 30 mM sodium citrate, pH 7.0 and 300 mM NaCl. The radiolabeled RNA products were quantitated using a Storm™ Phosphorlmager™ (GE Life Sciences). IC50 values were calculated using GraFit 6 and GraphPad Prism 5 from triplicate assays.

T1 sequence (P26663 2420-2989): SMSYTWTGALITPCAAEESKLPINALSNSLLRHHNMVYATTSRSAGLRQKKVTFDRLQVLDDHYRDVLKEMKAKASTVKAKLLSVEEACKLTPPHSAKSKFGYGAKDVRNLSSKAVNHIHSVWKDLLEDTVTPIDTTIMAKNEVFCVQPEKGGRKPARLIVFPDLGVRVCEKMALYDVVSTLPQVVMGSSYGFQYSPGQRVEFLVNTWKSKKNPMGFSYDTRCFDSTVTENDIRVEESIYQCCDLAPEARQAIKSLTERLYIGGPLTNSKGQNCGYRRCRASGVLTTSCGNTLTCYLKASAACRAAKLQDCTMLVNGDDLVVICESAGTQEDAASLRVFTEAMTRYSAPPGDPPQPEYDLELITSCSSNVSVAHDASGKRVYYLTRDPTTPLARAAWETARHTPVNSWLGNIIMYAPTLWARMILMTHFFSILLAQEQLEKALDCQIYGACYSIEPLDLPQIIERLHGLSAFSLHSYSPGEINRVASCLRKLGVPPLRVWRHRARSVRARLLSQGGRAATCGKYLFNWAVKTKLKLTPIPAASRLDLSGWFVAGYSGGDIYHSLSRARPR

Question: With `CC1CCC(C2=C(c3cc(C#CC(C)(C)C)sc3C(=O)O)CN(CC3CCOCC3)CC2)CC1` (centres unmarked) [Example 065, 5-(3,3-Dimethyl-but-1-ynyl)-3-[4-(4-methyl-cyclohexyl)-1-(tetrahydro-pyran-4-ylmethyl)-1,2,5,6-tetrahydro-pyridin-3-yl]-thiophene-2-carboxylic acid] as the compound, how does the IC50 read?
Answer: < 3 µM

Question: For `CC1CCC(C2=C(c3cc(-c4ccc(-c5nc6cccnc6n5C)cc4)sc3C(=O)O)CCN(C)C2)CC1` (centres unmarked) [Example 139, 5-[4-(3-Methyl-3H-imidazo[4,5-b]pyridin-2-yl)-phenyl]-3-[1-methyl-5-(4-methyl-cyclohexyl)-1,2,3,6-tetrahydro-pyridin-4-yl]-thiophene-2-carboxylic acid], which IC50 is on record?
Answer: > 10 µM

Question: For `Cc1cc(C)n2nc(-c3ccc(-c4cc(C5=C(C6CCC(C)CC6)CN(C)CC5)c(C(=O)O)s4)cc3)cc2n1` (centres unmarked) [Example 161, 5-[4-(5,7-Dimethyl-pyrazolo[1,5-a]pyrimidin-2-yl)-phenyl]-3-[1-methyl-5-(4-methyl-cyclohexyl)-1,2,3,6-tetrahydro-pyridin-4-yl]-thiophene-2-carboxylic acid], which IC50 is on record?
Answer: 3 to 10 µM

Question: For `CC(=O)OCOC(=O)c1sc(-c2ccc(NC(=O)c3cscn3)cc2)cc1C1=C(C2CCC(C)CC2)CN(C)CC1` (centres unmarked) [Example 102, 3-[1-Methyl-5-(4-methyl-cyclohexyl)-1,2,3,6-tetrahydro-pyridin-4-yl]-5-{4-[(thiazole-4-carbonyl)-amino]-phenyl}-thiophene-2-carboxylic acid acetoxymethyl ester], which IC50 is on record?
Answer: > 10 µM

Question: How did the IC50 turn out when `CC1CCC(C2=C(c3cc(-c4ccccc4)sc3C(=O)O)CCN(C(=O)Cc3cccc4ccccc34)C2)CC1` (centres unmarked) [Example 097, 3-[5-(4-Methyl-cyclohexyl)-1-(2-naphthalen-1-yl-acetyl)-1,2,3,6-tetrahydro-pyridin-4-yl]-5-phenyl-thiophene-2-carboxylic acid] was run?
Answer: > 10 µM

Question: Which IC50 does the source give for `CC1CCC(C2=C(c3cc(C#CC(C)(C)C)sc3C(=O)O)CCN(Cc3c(C(F)(F)F)nn(C)c3Cl)C2)CC1` (centres unmarked) [Example 136, 3-[1-(5-Chloro-1-methyl-3-trifluoromethyl-1H-pyrazol-4-ylmethyl)-5-(4-methyl-cyclohexyl)-1,2,3,6-tetrahydro-pyridin-4-yl]-5-(3,3-dimethyl-but-1-ynyl)-thiophene-2-carboxylic acid] here?
Answer: > 10 µM

Question: With `Cc1nn(C)cc1CN1CCC(c2cc(C#CC(C)(C)C)sc2C(=O)O)=C(C2CCC(C)CC2)C1` (centres unmarked) [Example 142, 5-(3,3-Dimethyl-but-1-ynyl)-3-[1-(1,3-dimethyl-1H-pyrazol-4-ylmethyl)-5-(4-methyl-cyclohexyl)-1,2,3,6-tetrahydro-pyridin-4-yl]-thiophene-2-carboxylic acid] as the compound, how does the IC50 read?
Answer: < 3 µM

Question: `CC1CCC(C2=C(c3cc(-c4ccccc4)sc3C(=O)O)CCN(CC(=O)O)C2)CC1` (centres unmarked) [Example 082, 3-[1-Carboxymethyl-5-(4-methyl-cyclohexyl)-1,2,3,6-tetrahydro-pyridin-4-yl]-5-phenyl-thiophene-2-carboxylic acid] was tested. Which IC50 did it give?
Answer: 3 to 10 µM

Question: For `CC1CCC(C2=C(c3cc(-c4ccccc4)sc3C(=O)O)CCN(Cc3ccnc(-c4cccs4)c3)C2)CC1` (centres unmarked) [Example 145, 3-[5-(4-Methyl-cyclohexyl)-1-(2-thiophen-2-yl-pyridin-4-ylmethyl)-1,2,3,6-tetrahydro-pyridin-4-yl]-5-phenyl-thiophene-2-carboxylic acid], which IC50 is on record?
Answer: > 10 µM

Question: Which IC50 does the source give for `CC1CCC(C2=C(c3cc(-c4ccc(NC(=O)c5cscn5)cc4)sc3C(=O)OCCN(C)C)CCN(C)C2)CC1` (centres unmarked) [Example 103, 3-[1-Methyl-5-(4-methyl-cyclohexyl)-1,2,3,6-tetrahydro-pyridin-4-yl]-5-{4-[(thiazole-4-carbonyl)-amino]-phenyl}-thiophene-2-carboxylic acid 2-dimethylamino-ethyl ester] here?
Answer: < 3 µM

Question: For `CC1CCC(C2=C(c3cc(C#CC(C)(C)C)sc3C(=O)O)CN(CC3CCOC3)CC2)CC1` (centres unmarked) [Example 117, 5-(3,3-Dimethyl-but-1-ynyl)-3-[4-(4-methyl-cyclohexyl)-1-(tetrahydro-furan-3-ylmethyl)-1,2,5,6-tetrahydro-pyridin-3-yl]-thiophene-2-carboxylic acid], which IC50 is on record?
Answer: < 3 µM

Reference: patent publication US8771665B2 (Cocrystal Discovery, Inc., priority 2010, dated 2014)
